{"source": "patent US20050215531A1", "about": "“Use of edg receptor binding agents in cancer” (priority 2002, published 2005)", "key": {"[1]": {"test_system": "human A375 melanoma cells", "experiment": "In vivo antitumor activity, A375 melanoma transplanted into BALB/c-nu/nu mice", "description": "(§1) Antitumor activity is expressed as T/C% (mean increase in tumor volumes of treated animals divided by the mean increase of tumor volumes of control animals multiplied by 100).\nAliquots of cancer cells (1×10^7), e.g. human A375 melanoma cells, are transplanted into BALB/c-nu/nu mice. When the tumors have reached ca. 10×10 mm in size, the animals are assigned randomly to four subgroups and the treatment with a compound of formula I is initiated. Animals are sacrificed after 2 week treatment, at which times tumors and tissues are harvested and prepared for morphological and molecular analysis. The size of the tumors is determined with a caliper."}, "[2]": {"test_system": "human MDA-MB-435 breast tumors", "experiment": "Combination with a VEGF-R protein tyrosin kinase inhibitor, MDA-MB-435 breast tumors in nude mice", "assay_type": "in vivo", "conditions": "2 weeks, Compound C HCl 2.5 mg/kg i.v. 5×/week, phthalazine succinate 100 mg/kg p.o. 5×/week, or both", "procedure": "as §1\nNude mice transplanted with human MDA-MB-435 breast tumors are treated for 2 weeks with a VEGF-R protein tyrosin kinase inhibitor, e.g. 1-(4-chloroanilino)-4-(4-pyridylmethyl)phthalazine succinate, at a dose of 100 mg/kg p.o. 5×/week, a S1P receptor agonist, e.g. Compound C (hydrochloride salt), at a dose of 2.5 mg/kg i.v. 5×/week, or a combination of both. Antitumor is expressed as T/C% as indicated above."}, "[3]": {"test_system": "human A375 melanoma cells", "experiment": "Combination with a VEGF-R protein tyrosin kinase inhibitor, A375 melanoma in nude mice", "assay_type": "in vivo", "conditions": "treated in a similar way (same doses) alone or combined"}, "[4]": {"test_system": "HUVEC", "experiment": "In vitro angiogenesis (tube formation) assay on Matrigel", "assay_type": "cell-based, human", "conditions": "for effect on VEGF-triggered tube formation: high concentrations, 2-5 μM", "procedure": "(§2) Human umbilical vein endothelial cells (HUVEC) are cultured at 37° C. and 5% CO2 in medium M199 supplemented with 20% SCS (HyClone, Logan, Utah), 1 U/ml heparin, 50 μg/ml ECGS, 2 mM glutamine, 100 U/ml penicillin and 0.1 mg/ml streptomycin. Cells are used for experiments up to passage number 5. Short-starved HUVEC are obtained by starving with 1% SCS-containing M199 for 5 h. Recombinant human VEGF165 is obtained from PromoCell (Heidelberg, Germany). Phospho-specific ERK½, p3B kinase polyclonal antibodies, nonphospho ERK½ antibodies and LumiGLO chemiluminescent reagent are from New England BioLabs (Beverly, Mass.), polyclonal IKB antibodies from Santa Cruz Biotechnology (Santa Cruz, Calif.). Peroxidase-conjugated donkey anti-rabbit immunoglobulin G (IgG) and sheep anti-mouse IgG are purchased from Amersham LIFE SCIENCE (Amersham Place, England). lmmobilon-P transfer membranes are products of Millipore (Bedford, Mass.). S is obtained from Sigma Chemical Co.; S1P is from Biomol. Compound A-phosphate stock solution is prepared by the following protocol. Compound A-phosphate is dissolved in methanol tracing with concentrated HCl (0.5 mg Compound A-phosphate in 500 μl of methanol plus 2 μl of HCl). Solvent from the resulting solution is evaporated under vacuum and the residue obtained is redissolved (variant 1) in 0.1% of defatted BSA solution in sterile deionized water (500 μl) or (variant 2) in 0.5% Triton X-100 in deionized water. The resulting stock solutions (2.5 mM) are sonicated and stored at 4° C.\nMorphogenesis of endothelial cells into capillary-like structures on Growth Factor Reduced Matrigel Matrix (BD Bioscience) is performed according to the manufacture procedure. Briefly, HUVEC are trypsinized, resuspended in serum-free Ml 99 medium containing soybean trypsin inhibitor (1 mg/ml, Sigma). After centrifugation cells are resuspended in serum-free medium at a density 0.5×10^5 cells/ml, and cell suspension is seeded in 96-well cell culture plates (Costar, Corning Incorporated) precoated with 50 μl of Matrigel in the absence or presence of various stimuli: VEGF at 1.5 nM, S1P at 0.1-2 μM, S at 0.5-2 μM, Compound A at 0.5-2 μM, and Compound A-phosphate at 0.1-2 μM. Eight hours later, cells on Matrigel are fixed with 3% formaldehyde in PBS and kept at 4° C. Results are quantitated from images made with a Nikon Diaphot microscope equipped with a cooled CCD camera (Kappa GmbH, Gleichen, Germany) by direct counting of branching points on two microscopic fields from each well done in duplicates.\nThe effect of Compound A and Compound A-phosphate on morphogenic differentiation of endothelial cells is determined using an in vitro angiogenesis assay on Matrigel. Endothelial cell morphogenesis is a complex process that requires cell-extracellular matrix interactions, followed by matrix remodelling, stimulated migration, cell-cell interactions, and perivascular proteolysis. […] This may be interpreted as a possible involvement of EDG-1 (S1P1) receptor-mediated signaling events in Compound A-phosphate-stimulated bioresponses (see e.g. FIG. 3). […] Importantly, high concentrations of S and Compound A (2-5 μM) inhibited VEGF-triggered tube formation."}, "[5]": {"test_system": "ERK½ MAP kinases", "experiment": "Western blot, activation of ERK½ MAP kinases in HUVEC", "assay_type": "cell-based, human", "conditions": "endothelial cells, 5 minute to 60 minute treatment", "procedure": "as §2\nAfter various treatments, the cells are washed twice with cold PBS, lysed in 100 μl of Laemmli buffer, scraped and heated for 5 min at 95° C. Total cell lysates are separated by SDS-PAGE and transferred to Immobilon-P membrane. The membrane is blocked for 30 minutes with PBS containing 0.1% Tween-20 and 3% skim milk and incubated for 1 hour at RT with a primary antibody diluted in blocking buffer. The membrane obtained is washed three times for 5 minutes with PBS containing 0.1% Tween-20 and incubated with peroxidase-conjugated secondary antibody for 1 hour at RT. After a washing step, the membrane is incubated for 1 minute with ECL reagent and exposed to film as required. For reprobing with another antibody, the membrane is washed twice in PBS, stripped for 30 min at 55° C. with stripping buffer (62.5 mM Tris-HCL, pH 6.8, 2% SDS, 100 mM 2-mercaptoethanol) and washed three times for 5 minutes with PBS at RT. The membrane is stored wet wrapped in SaranWrap at 4° C. after each immunodetection.\nSignal transduction via MAP idnases plays a key role in a variety of endothelial cell functions. Treatment of HUVEC with Compound A-phosphate at 0.5 μM may result in transient activation of ERK½ with a peak of phosphorylation/activation at 10 minutes and returning to baseline by 20 minutes (see e.g. FIG. 5). No activation of p38 kinase and JNK½ by Compound A-phosphate is detectable in HUVEC. […] To estimate the possible role of inflammatory/NFκB-dependent program in Compound A-phosphatestimulated bioresponses of endothelial cells, the membranes are reprobed with anti-IκB antibodies. IκB levels are not affected by Compound A-phosphate treatment."}, "[6]": {"test_system": "tissue factor", "experiment": "Clotting assay, tissue factor activity on HUVEC", "assay_type": "cell-based, human", "conditions": "compound alone or in combinations, 0.5-2 μM, 4 hours", "procedure": "as §2\nCells are seeded in 6-well plates at 80-90% confluency and grown overnight. Cells are scraped from the plates and analyzed for tissue factor activity according to the method as described in Clauss, M., J. Biol. Chem. 271,17629-17634 (1996), Mechtcheriakova, D., Blood 93,3811-3823 (1999). Briefly, after induction for 4 hours with VEGF (1.5 nM), TNF-α (100 U/ml), S (0.5-2 μM), S1P (0.5-2 μM), Compound A (0.5-2 μM), and Compound A-phosphate (0.5-2 μM), cells are washed twice and then scraped in 1 ml clotting buffer (12 mM sodium acetate, 7 mM diethylbarbitate and 130 mM sodium chloride; pH 7.4). 50 μl of resuspended cells are mixed with 50 μl of citrated plasma, and clotting times are determined after recalcfication with 50 μl of 20 mM CaCl2 solution at 37° C. TF-equivalents are determined by using a standard curve obtained from rabbit brain thromboplastin.\nAn important characteristic feature of both classical inflammatory stimulus TNF-α and the main angiogenic growth factor VEGF on endothellal cells is their potency to upregulate tissue factor. Compound A, Compound A-phosphate, S or S1P are tested whether they also do induce tissue factor on HUVEC. […] The data obtained together indicate that Compound A, Compound A-phosphate, S and S1P mechanistically work distinctly to anglogenic VEGF and inflammatory TNF-α."}, "[7]": {"test_system": "HUVEC", "experiment": "S1P-mediated HUVEC tube formation assay", "assay_type": "cell-based, human", "conditions": "treatment alone; branching points in 3 independent fields at 4× magnification", "procedure": "For the tube formation assay, HUVEC from passage 2-8 are used and are never greater than 70% confluent before harvesting. Cells are prepared for the assay by washing with Herpes Balanced Saline Solution (HBSS from Clonetics) and then trypsinizing with Trypsin/EDTA (0.25 mg/ml, from Clonetics). After approximately 90% of the cells have lifted off the plate, an equal volume of Trypsin Neutralizing Solution (TNS from Clonetics) is added and the cells are collected into a conical tube containing at least 10 ml of EBM-2 (Clonetics)+0.1% BSA (Sigma) media Cells are centrifuged at 1000 rpm for 5 minutes and the supematant is removed and replaced with 5 ml of fresh EBM-2+0.1% BSA. Cells are counted using a hemacytometer and the volume of the cell suspension is adjusted to achieve a concentration of 500,000 cells/ml. Conical tubes are prepared with test compounds at 100 nM, and pertussin toxin (PTx) at 10 ng/ml in each, then 1 ml of the cell suspension is added to each tube. Tubes are then incubated for ½ hour at 37° C., 5% CO2. The migration assay is performed using Fluoro-Blok 24-Multiwell insert Plates coated with fibronectin (8 μm pore size, Falcon #351147) instead of the individual inserts in a 24-well plate. Cells and test compounds are prepared and pre-incubated as described above, then 100 μl is added to each approriate well in the Insert Plate. 300 μl of the EBM-2+2% charcoastripped media without S1P is added to the bottoms of the wells marked for no stimulation (−), and 300 μl of the media containing S1P (500 nM) is added to the bottoms of the wells marked for stimulation (+). The plate is then incubated for 4 hours at 37° C., 5% CO2. […]\nAfter incubation, the plate is read on a Cytofluor II at an excitation of 485 nm and emission of 530 nm. The Fluoro-Blok coating in the inserts allows only the cells that have migrated to the bottom to be counted. […]\nTube formation is quantitated by counting the number of branching points (two independent cords connecting) in 3 independent fields at 4× magnification."}}, "note": "Structures can show the parent of a compound that is named as a salt."}
{"compound": "CCCCCCCOc1ccc(CCC(C)(N)CO)cc1", "note": "(stereo not shown) [Compound C—HCl, 2-amino-4-(4heptyloxyphenyl)-2-methyl-butanol]", "values": [{"measurement": "final T/C value", "setting": "[1]; 2.5 mg/kg 5×/week", "result": 30, "unit": "%"}, {"measurement": "T/C%", "setting": "[2]", "result": 66, "unit": "%"}, {"measurement": "T/C%", "setting": "[3]", "result": 35, "unit": "%"}]}
{"compound": "CCCCCCCCCCCCC/C=C/[C@@H](O)[C@@H](N)CO", "note": "[S, sphingosine, reference compound]", "values": [{"measurement": "effect on the VEGF-induced tube formation", "setting": "[4]; 1 μM", "result": "without having an inhibitory effect"}, {"measurement": "effect on the ability of S1P and Compound A-phosphate to induce capillary-like structures", "setting": "[4]; 1 μM", "result": "attenuates"}, {"measurement": "potency to induce capillary-like structures", "setting": "[4]; 1 μM, compared with S1P", "result": "less potent than S1P"}, {"measurement": "effect on VEGF-triggered tube formation", "setting": "[4]", "result": "inhibited"}, {"measurement": "effect on VEGF-triggered tube formation", "setting": "[4]; listed as sphingosine", "result": "inhibits"}, {"measurement": "MAP kinase activation", "setting": "[5]", "result": "Neither Compound A nor S are able to induce MAP kinase activation"}, {"measurement": "tissue factor activity", "setting": "[6]", "result": "none of these compounds alone or in combinations may elevate tissue factor activity"}]}
{"compound": "pertussis toxin [reference compound]", "values": [{"measurement": "inhibition of Compound A-phosphate- and S1P-stimulated tube formation", "setting": "[4]; PTX 50 ng/ml", "result": "practically completely inhibited"}]}
{"compound": "Clc1ccc(Nc2nnc(Cc3ccncc3)c3ccccc23)cc1.O=C(O)CCC(=O)O", "note": "[1-(4-chloroanilino)-4-(4-pyridylmethyl)phthalazine succinate, reference compound]", "values": [{"measurement": "T/C%", "setting": "[2]", "result": 91, "unit": "%"}, {"measurement": "T/C%", "setting": "[3]", "result": 44, "unit": "%"}]}
{"compound": "CCCCCCCCCCCCC/C=C/[C@@H](O)[C@@H](N)COP(=O)(O)O", "note": "[Compound S1P, sphingosine-1-phosphate, reference compound]", "values": [{"measurement": "Branching Points", "setting": "[7]", "result": "42 ± 13"}, {"measurement": "tissue factor activity", "setting": "[6]", "result": "none of these compounds alone or in combinations may elevate tissue factor activity"}]}
{"compound": "CCCCCCCOc1ccc(CCC(C)(N)CO)cc1", "note": "(stereo not shown) [Compound C, 2-amino-4-(4heptyloxyphenyl)-2-methyl-butanol]", "values": [{"measurement": "tumor growth vs saline control", "setting": "[1]; hydrochloride salt form, 0.5 to 5 mg/kg, 2 week treatment", "result": "slows tumor growth"}]}
